Results: patent US20220073536A1 (Rigel Pharmaceuticals, Inc., priority 2003, published 2022)
Where two headings read alike, the source gives them in different places.

Tested on: cultured human mast cells (CHMC)
Experiment: CHMC low cell density IgE activation: tryptase assay
Assay type: cell-based
Conditions: IgE activation
Method: Inhibition of degranulation was measured at both low and high cell density by quantifying the release of the granule specific factors tryptase, histamine and hexosaminidase. Inhibition of release and/or synthesis of lipid mediators was assessed by measuring the release of leukotriene LTC4 and inhibition of release and/or synthesis of cytokines was monitored by quantifying TNF-α, IL-6 and IL-13. Tryptase and hexosaminidase were quantified using fluorogenic substrates as described in their respective examples. […] The protocols of the various assays are provided below.
Pellet CHMC cells (980 rpm, 10 min) and resuspend in pre-warmed MT. Add 65 ul of cells to each 96-well plate. Depending on the degranulation activity for each particular CHMC donor, load 1000-1500 cells/well. Mix four times followed by a 1 hr incubation at 37° C. […] Stimulate cells by adding 25 ul of 6× anti-IgE solution to the appropriate plates. Add 25 ul MT to un-stimulated control wells. Mix twice following addition of the anti-IgE. Incubate at 37° C. for 30 minutes. […] Spin plates at 1000 rpm for 10 min to pellet cells. Transfer 25 ul of supernatant to a 96-well black bottom plate and add 100 ul of freshly diluted tryptase substrate solution to each well. Incubate plates at room temperature for 30 min.

[1] = low cell density CHMC, tryptase, 3 pt, read-out: LD Tryptase, CHMC, IgE, 3 pt
[2] = low cell density CHMC, tryptase, 8 pt, read-out: LD Tryptase, CHMC, IgE, 8 pt
[3] = Homo sapiens, Mast cell, low cell density CHMC, tryptase release, 8 pt, read-out: LD Tryptase, CHMC, IgE, 8 pt
[4] = low cell density CHMC, tryptase release, 8 pt, read-out: LD Tryptase, CHMC, IgE, 8 pt
[5] = Homo sapiens, Mast cell, low cell density CHMC, tryptase release, 3 pt, read-out: LD Tryptase, CHMC, IgE, 3 pt
[6] = low cell density CHMC, tryptase release, 3 pt, read-out: LD Tryptase, CHMC, IgE, 3 pt

Molecule | IC50 [3] [µM] | also measured
5-Fluoro-N2,N4-bis (4-[N-[methoxycarbonylmethylene]aminocarbonyl]phenyl)-2,4-pyrimidinediamine [Compound 1332] | – | IC50 [1]: < 10 µM; IC50 [2]: < 10 µM
5-Fluoro-N2- (3-hydroxyphenyl)-N4- (4-[N-[methoxycarbonylmethylene]aminocarbonyl]phenyl)-2,4-pyrimidinediamine [Compound 1328] | – | IC50 [2]: < 10 µM
5-Fluoro-N2-[2- (N-methylamino)carbonylindol-7-yl]-N4-[3,4-(tetrafluoroethylenedioxy)phenyl]-2,4-pyrimidinediamine [Compound 365] | – | IC50 [1]: < 10 µM
CC1Sc2ccc(Nc3nc(Nc4cccc(O)c4)ncc3F)cc2NC1=O (racemic) [Compound 282] | < 10 | –
CC1C(=O)Nc2cc(Nc3nc(Nc4cccc(O)c4)ncc3F)ccc2S1(=O)=O (racemic) [Compound 284, racemic-5-Fluoro-N2-[3-hydoxyphenyl]-N4-(2-methyl-1,1,3-trioxo-2H,4H-benzo[1,4]thiazin-6-yl)-2,4-pyrimidinediamine] | – | IC50 [4]: < 10 µM
CNC(=O)COc1cccc(Nc2ncc(F)c(Nc3ccc4c(c3)NC(=O)C(C)S4(=O)=O)n2)c1 (racemic) [Compound 285, racemic-5-Fluoro-N2-[3-(N-methylamino)carbonylmethyleneoxyphenyl]-N4-(2-methyl-1,1,3-trioxo-2H,4H-benzo[1,4]thiazin-6-yl)-2,4-pyrimidinediamine] | – | IC50 [4]: < 10 µM
COc1ccc(Nc2ncc(F)c(Nc3ccc4c(c3)NC(=O)C(C)S4(=O)=O)n2)cc1Cl (racemic) [Compound 286] | < 10 | –
COc1ccc(Nc2ncc(F)c(Nc3ccc4c(c3)NC(=O)C(C)S4(=O)=O)n2)cc1F (racemic) [Compound 296] | < 10 | IC50 [5]: < 10 µM
COc1ccc(Nc2ncc(F)c(Nc3ccc4c(c3)NC(=O)C(C)S4)n2)cc1F (racemic) [Compound 298] | < 10 | IC50 [5]: < 10 µM
CC1Sc2ccc(Nc3nc(Cl)ncc3F)cc2NC1=O (racemic) [Compound 314, racemic-N2-Chloro-5-fluoro-N4-(2-methyl-3-oxo-2H,4H-benzo[1,4]thiazin-6-yl)-4-pyrimidineamine] | – | IC50 [6]: < 10 µM
CC1C(=O)Nc2cc(Nc3nc(Cl)ncc3F)ccc2S1(=O)=O (racemic) [Compound 317, racemic-N2-Chloro-5-fluoro-N4-(2-methyl-1,1,3-trioxo-2H,4H-benzo[1,4]thiazin-6-yl)-4-pyrimidineamine] | – | IC50 [6]: > 10 µM
CC1C(=O)Nc2cc(-c3nc(Nc4ccc5oncc5c4)nc(N)c3F)ccc2S1(=O)=O (racemic) [Compound 929] | – | IC50 (Homo sapiens, Mast cell, low cell density, 3 pt, read-out: LD Tryptase, CHMC, IgE, 3 pt): < 10 µM
CC1Sc2ccc(Nc3nc(Nc4ccc5oncc5c4)ncc3F)cc2NC1=O (racemic) [Compound 931] | – | IC50 (Homo sapiens, Mast cell, low cell density, 8 pt, read-out: LD Tryptase, CHMC, IgE, 8 pt): < 10 µM
NC1CCOc2ccc(Nc3nc(Nc4ccc(-c5cnco5)cc4)ncc3F)cc21 (racemic) [Compound 1293, (R,S)-N4-[4-Amino-3,4-dihydro-2H-1-benzopyran-6-yl]-5-fluoro-N2-[4-(oxazol-5-yl)phenyl]-2,4-pyrimidinediamine] | – | IC50 [2]: < 10 µM
N[C@@H]1CCOc2ccc(Nc3nc(Nc4ccc(-c5ncco5)cc4)ncc3F)cc21 (racemic) [Compound 1294, (R,S)-N4-[4-Amino-3,4-dihydro-2H-1-benzopyran-6-yl]-5-fluoro-N2-[4-(oxazol-2-yl)phenyl]-2,4-pyrimidinediamine] | – | IC50 [2]: < 10 µM
C[C@@H]1Oc2ccc(Nc3nc(Nc4ccc5cn[nH]c5c4)ncc3F)cc2NC1=O [Compound 200] | < 10 | –
C[C@@H]1Oc2ccc(Nc3nc(Nc4ccc5cnn(C)c5c4)ncc3F)cc2NC1=O [Compound 201] | < 10 | –
Cc1cc(C)cc(Nc2ncc(F)c(Nc3ccc4c(c3)NC(=O)[C@H](C)O4)n2)c1 [Compound 202, (S)-N2-(3,5-Dimethylphenyl)-5-fluoro-N4-(2-methyl-3-oxo-2H,4H-benz[1,4]oxazin-6-yl)-2,4-pyrimidinediamine] | < 10 | –

Molecule | IC50 [3] [µM] | also measured
COc1cc(Nc2ncc(F)c(Nc3ccc4c(c3)NC(C)(C)CO4)n2)cc(OC)c1 [Compound 203, N4-(3,4-Dihydro-3,3-dimethyl-2H,4H-benz[1,4]oxazin-6-yl)-N2-(3,5-dimethoxyphenyl)-5-fluoro-2,4-pyrimidinediamine] | < 10 | –
Cc1cc(C)cc(Nc2ncc(F)c(Nc3ccc4c(c3)NC(=O)[C@@H](C)O4)n2)c1 [Compound 204, (R)-N2-(3,5-Dimethylphenyl)-5-fluoro-N4-(2-methyl-3-oxo-2H,4H-benz[1,4]oxazin-6-yl)-2,4-pyrimidinediamine] | < 10 | –
C[C@H]1Oc2ccc(Nc3nc(Nc4cc5c6c(c4)c(CCO)cn6CCO5)ncc3F)cc2NC1=O [Compound 205, (R)-5-Fluoro-N2-[6-(2-hydroxyethyl)-2,3-dihydropyrrolo[1,2,3-d,e]benzoxazin-8-yl]-N4-(2-methyl-3-oxo-2H,4H-benz[1,4]oxazin-6-yl)-2,4-pyrimidinediamine] | – | IC50 [4]: < 10 µM
CC1(C)COc2ccc(Nc3nc(Nc4cc5c6c(c4)c(CCO)cn6CCO5)ncc3F)cc2N1 [Compound 206, N4-(3,4-Dihydro-3,3-dimethyl-2H,4H-benz[1,4]oxazin-6-yl)-5-fluoro-N2-[6-(2-hydroxyethyl)-2,3-dihydropyrrolo[1,2,3-d,e]benzoxazin-8-yl]-2,4-pyrimidinediamine] | – | IC50 [4]: < 10 µM
COc1ccc(Nc2ncc(F)c(Nc3ccc4c(c3)NC(=O)[C@@H](C)O4)n2)cc1Cl [Compound 207] | < 10 | –
C[C@H]1Oc2ccc(Nc3nc(Nc4ccc5cnn(C)c5c4)ncc3F)cc2NC1=O [Compound 210] | < 10 | –
COc1ccc(Nc2ncc(F)c(Nc3ccc4c(c3)NC(=O)[C@@H](C)O4)n2)cc1Cl [Compound 211] | – | IC50 [5]: < 10 µM
COc1cc(C)c(Nc2ncc(F)c(Nc3ccc4c(c3)NC(=O)[C@@H](C)O4)n2)cc1Cl [Compound 213] | < 10 | IC50 [5]: < 10 µM
COc1cc(Nc2ncc(F)c(Nc3ccc4c(c3)NC(=O)C(C)S4(=O)=O)n2)cc(OC)c1 (centres unmarked) [Compound 263, N2-(3,5-Dimethoxyphenyl)-N4-(dioxide-2-methyl-1,1,3-trioxo-4H-benzo[1,4]thiazin-6-yl)-5-fluoro-2,4-pyrimidinediamine] | < 10 | IC50 [5]: < 10 µM
Cc1cc(C)cc(Nc2ncc(F)c(Nc3ccc4c(c3)NC(=O)C(C)S4(=O)=O)n2)c1 (centres unmarked) [Compound 264] | < 10 | IC50 [5]: < 10 µM
CC1C(=O)Nc2cc(Nc3nc(Nc4ccc5cn[nH]c5c4)ncc3F)ccc2S1(=O)=O (centres unmarked) [Compound 265] | < 10 | IC50 [5]: < 10 µM
COc1cc(Nc2ncc(F)c(Nc3ccc4c(c3)NC(=O)C(C)S4(=O)=O)n2)cc(OC)c1OC (centres unmarked) [Compound 266] | < 10 | IC50 [5]: < 10 µM
COc1cc(Nc2ncc(F)c(Nc3ccc4c(c3)NC(=O)C(C)(C)S4(=O)=O)n2)cc(OC)c1 [Compound 267] | < 10 | –
Cc1cc(C)cc(Nc2ncc(F)c(Nc3ccc4c(c3)NC(=O)C(C)(C)S4(=O)=O)n2)c1 [Compound 268] | < 10 | –
COc1cc(Nc2ncc(F)c(Nc3ccc4c(c3)NC(=O)C(C)(C)S4(=O)=O)n2)cc(OC)c1OC [Compound 269] | < 10 | –
COc1cc(Nc2ncc(F)c(Nc3ccc4c(c3)NC(=O)C(C)S4)n2)cc(OC)c1 (centres unmarked) [Compound 270] | < 10 | –
Cc1cc(C)cc(Nc2ncc(F)c(Nc3ccc4c(c3)NC(=O)C(C)S4)n2)c1 (centres unmarked) [Compound 271] | < 10 | –
COc1cc(Nc2ncc(F)c(Nc3ccc4c(c3)NC(=O)C(C)S4)n2)cc(OC)c1OC (centres unmarked) [Compound 272] | < 10 | –
